The values below come from ChEMBL document CHEMBL1128241, “Molecular similarity matrices and quantitative structure-activity relationships: a case study with methodological implications” (J Med Chem, 1995).

The nature of the first series: Partition coefficient (logP). In kind it is physicochemical. The conditions noted are these: octanol/water.
Usually logP stands for a log measure of how a compound divides between an organic and an aqueous phase. `ClC(Cl)C(Cl)(Cl)Cl` [PENTACHLOROETHANE] had a logP of 5.72.

On to `ClC(Cl)=C(Cl)Cl` [TETRACHLOROETHYLENE], for which the logP stood at 1.27.

Molecule `ClC=C(Cl)Cl` [TRICHLOROETHYLENE] displayed a logP of 0.96.

The series is the same for the next values; noted with them: octanol/water; read-out: logP.
For the molecule `CCC(C)(C)Br`, the logP came out at 2.99.

For the molecule `ClCC(Cl)(Cl)Cl`, the logP turned out to be 3.05.

As to `CCCCCBr`, the logP is 3.25.

Consider `CCCCCCCCBr`, for which the logP is 4.87.

Consider `C=C(Cl)CCl`, for which the logP worked out at 1.75.

Consider `CCCCCCCl`, for which the logP amounted to 3.65.

As to `CCC(C)Br` (stereo not drawn), the logP worked out at 2.71.

On to `CCC(C)CBr` (stereo not drawn), for which the logP was found to be 3.12.

For `ClCCCBr`, the logP was found to be 1.88.

In the case of `Cl/C=C/Cl`, the logP was found to be 0.65.

Take `C=C(C)CCl`: the logP turned out to be 1.89.

As to `CC(C)=CBr`, the logP turned out to be 1.8.

As for `ClCCCCl`, the logP was 1.74.

For the molecule `CCCCCCCCCl`, the logP stood at 4.85.

For `CC(C)CCBr`, the logP is 3.12.

For the molecule `ClCCBr`, the logP amounted to 1.62.

Regarding `ClCC=C(Cl)Cl`, the logP was found to be 1.5.

As to `CC(C)=CCl`, the logP came out at 1.89.

Turning to `ClC(Cl)(Cl)Br`, the logP was found to be 3.1.

As for `C=C(CCl)CCl`, the logP amounted to 2.01.

For `CC(Br)CCl` (stereo not drawn), the logP was 2.16.

In the case of `CC(C)CCl`, the logP was 2.44.

Consider `FC(Cl)(Br)Br`, for which the logP worked out at 2.8.

Take `C/C(Cl)=C/Cl`: the logP is 1.79.

Turning to `CCC(C)Cl` (stereo not drawn), the logP was determined as 2.57.

In the case of `CC(C)CBr`, the logP stood at 2.58.

In the case of `ClCBr`, the logP was found to be 1.4.

`CC(Cl)C(C)Cl` (stereo not drawn): the logP is 2.56.

In the case of `CC(C)(C)Cl`, the logP came out at 2.44.

For `CC(C)(C)Br`, the logP is 2.45.

Consider `CCCCCCl`, for which the logP was 3.11.

On to `CC(C)(Cl)Cl`, for which the logP was determined as 2.34.

In the case of `ClCCCCBr`, the logP is 2.42.

Take `CC(Cl)CCCl` (stereo not drawn): the logP was found to be 2.28.

Consider `CC(Cl)CCl` (stereo not drawn), for which the logP is 2.02.

For the molecule `CC(Cl)Cl`, the logP is 1.8.

For `ClC(Cl)C(Cl)Cl` [1,1,2,2-TETRACHLOROETHANE], the logP was 2.66.

As for `C=C(Cl)Cl` [1,1-DICHLOROETHENE], the logP was 1.21.

Regarding `ClCC(Cl)CCl` [1,2,3-TRICHLOROPROPANE], the logP turned out to be 2.01.

In the case of `Cl/C=C/CCl` [1,3-DICHLOROPROPENE], the logP turned out to be 1.19.

For `CCCCBr` [1-BROMOBUTANE], the logP is 2.71.

`ClC(Cl)Br` [BROMODICHLOROMETHANE]: the logP was determined as 2.67.

In the case of `CCBr` [BROMOETHANE], the logP came to 1.63.

Take `BrC(Br)Br` [BROMOFORM]: the logP is 2.38.

Take `ClC(Cl)(Cl)Cl` [CARBON TETRACHLORIDE]: the logP worked out at 2.83.

Take `ClC(Br)Br` [DIBROMOCHLOROMETHANE]: the logP is 2.48.

As for `ClC(Cl)(Cl)C(Cl)(Cl)Cl` [HEXACHLOROETHANE], the logP was determined as 4.62.

For `ClCCl` [METHYLENE CHLORIDE], the logP came out at 1.26.

As for `CC(Cl)(Cl)Cl` [TRICHLOROETHANE], the logP is 2.5.

As for `FC(Cl)(Cl)Cl` [TRICHLOROMONOFLUOROMETHANE], the logP worked out at 2.29.
